Measurements reported in patent EP0811615A1, “1-Aryl-5-(substituted alkyl (thio) amido) pyrazoles and their use as pesticides” (RHONE-POULENC AGROCHIMIE, priority 1996, dated 1997).

Experiments:
Type in all cases: in vivo
southern armyworm = assay: Southern armyworm foliar spray test on bean plants; conditions: Spodoptera eridania, 120 h; foliar application at 100 ppm; second instar larvae, held five days; read-out: pest mortality SAW
Method: (§1) For mite, aphid, southern armyworm, Mexican bean beetle, and tobacco budworm tests, a solution or suspension was prepared by adding 10 mg of the test compound to a solution of 160 mg of dimethylformamide, 838 mg of acetone, 2 mg of a 3:1 ratio of Triton X-172 : Triton X-152 (respectively, mainly anionic and nonionic low foam emulsifiers which are each anhydrous blends of alkylaryl polyether alcohols with organic sulfonates), and […] of water. The result was a concentration of 100 ppm of the test compound.
Southern armyworm: Potted bean plants, were placed on a revolving turntable and sprayed with 100 ml of the 100 ppm test compound formulation by use of a DeVilbiss spray gun set at 40 psig air pressure. As an untreated control, 100 ml of a water-acetone-DMF-emulsifier solution, containing no test compound, were also sprayed on plants. A treated control with a commercial technical compound, either cypermethrin or sulprofos, formulated in the same manner, was tested as a standard. When dry, the leaves were placed in plastic cups lined with moistened filter paper. Five randomly selected second instar southern armyworm larvae were introduced into each cup which was closed and held for five days. Larvae which were unable to move the length of the body, even upon stimulation by prodding, were considered dead.

tobacco budworm = assay: Tobacco budworm foliar spray test on cotton plants; conditions: Heliothis virescens, 120 h; foliar application at 100 ppm; second instar larvae, held five days; read-out: pest mortality TBW
Method: as §1
Tobacco budworm: Potted cotton plants were placed on a revolving turntable and sprayed with 100 ml of the 100 ppm test compound formulation by use of a DeVilbiss spray gun set at 40 psig air pressure. As an untreated control, 100 ml of a water-acetone-DMF-emulsifier solution, containing no test compound, were also sprayed on plants. A treated control with a commercial technical compound, either cypermethrin or sulprofos, formulated in the same manner, was tested as a standard. When dry, the leaves were placed in plastic dishes containing a piece of filter paper and a moistened dental wick. One randomly selected second instar tobacco budworm larva was then introduced into each cup which was closed and held for five days. Larvae unable to move the length of their body, even upon stimulation by prodding, were considered dead.

housefly = assay: House fly bait test; conditions: Musca domestica; bait application at 100 ppm; adult flies, after 24 hours; read-out: pest mortality HF
Source text: For housefly tests, the formulation was initially prepared in a similar manner to the above, but in 16.3 g of water with corresponding adjustment of other components, providing a 200 ppm concentration. Final dilution with an equal volume of a 20% by weight aqueous solution of sucrose provided a 100 ppm concentration of the test compound. When necessary, sonication was provided to insure complete dispersion.
House fly: Four to six day old adult house flies were reared according to the specifications of the Chemical Specialties Manufacturing Association (Blue Book, McNair-Dorland Co., N.Y. 1954; pages 243-244, 261) under controlled conditions. The flies were immobilized by anesthetizing with carbon dioxide and twenty five immobilized individuals, males and females, were transferred to a cage consisting of a standard food strainer and a wrapping-paper-covered surface. Ten ml of the 100 ppm test compound formulation were added to a soufflé cup containing an absorbent cotton pad. As an untreated control, 10 ml of a water-acetone-DMF-emulsifier-sucrose solution, containing no test compound, were applied in a similar manner. A treated control with a commercial technical compound, malathion, formulated in the same manner, was tested as a standard. The bait cup was introduced inside the food strainer prior to admitting the anesthetized flies.

SMILES | mortality at 100 ppm (southern armyworm) | mortality at 100 ppm (tobacco budworm) | mortality at 100 ppm (housefly)
COC(C)(C)C(=O)Nc1c(SC(F)(F)F)c(C#N)nn1-c1c(Cl)cc(C(F)(F)F)cc1Cl [Compound 30] | 70 to 100% | 70 to 100% | –
COC(=O)CCC(=O)Nc1c(SC(F)(F)F)c(C#N)nn1-c1c(Cl)cc(C(F)(F)F)cc1Cl [Compound 5] | 70 to 100% | 70 to 100% | 70 to 100%
CCCCCCOCC(=O)Nc1c(SC(F)(F)F)c(C#N)nn1-c1c(Cl)cc(C(F)(F)F)cc1Cl [Compound 33] | – | 70 to 100% | –
COCC(=O)Nc1c(SC(F)(Cl)Cl)c(C#N)nn1-c1c(Cl)cc(C(F)(F)F)cc1Cl [Compound 14] | 70 to 100% | 70 to 100% | 70 to 100%
CCOCC(=O)Nc1c(SC(F)(Cl)Cl)c(C#N)nn1-c1c(Cl)cc(C(F)(F)F)cc1Cl [Compound 15] | 70 to 100% | 70 to 100% | 70 to 100%
COCCOCC(=O)Nc1c(SC(F)(Cl)Cl)c(C#N)nn1-c1c(Cl)cc(C(F)(F)F)cc1Cl [Compound 16] | 70 to 100% | 70 to 100% | 70 to 100%
COC(C)C(=O)Nc1c(SC(F)(F)F)c(C#N)nn1-c1c(Cl)cc(C(F)(F)F)cc1Cl (stereo not shown) [Compound 21] | 70 to 100% | 70 to 100% | 70 to 100%
CCCCOCC(=O)Nc1c(SC(F)(F)F)c(C#N)nn1-c1c(Cl)cc(C(F)(F)F)cc1Cl [Compound 6] | 70 to 100% | 70 to 100% | 70 to 100%
CCOC(CC)C(=O)Nc1c(SC(F)(F)F)c(C#N)nn1-c1c(Cl)cc(C(F)(F)F)cc1Cl (stereo not shown) [Compound 40] | 70 to 100% | – | 70 to 100%
CCC(OC)C(=O)Nc1c(SC(F)(F)F)c(C#N)nn1-c1c(Cl)cc(C(F)(F)F)cc1Cl (stereo not shown) [Compound 38] | 70 to 100% | 70 to 100% | 70 to 100%
COC(C(=O)Nc1c(SC(F)(F)F)c(C#N)nn1-c1c(Cl)cc(C(F)(F)F)cc1Cl)C(C)C (stereo not shown) [Compound 23] | 70 to 100% | 70 to 100% | –
COC(C(=O)Nc1c(SC(F)(Cl)Cl)c(C#N)nn1-c1c(Cl)cc(C(F)(F)F)cc1Cl)C(C)C (stereo not shown) [Compound 27] | 70 to 100% | 70 to 100% | –
CCCC(OCC)C(=O)Nc1c(SC(F)(F)F)c(C#N)nn1-c1c(Cl)cc(C(F)(F)F)cc1Cl (stereo not shown) [Compound 41] | 70 to 100% | – | 70 to 100%
CCC(OC)C(=O)Nc1c(SC(F)(Cl)Cl)c(C#N)nn1-c1c(Cl)cc(C(F)(F)F)cc1Cl (stereo not shown) [Compound 37] | 70 to 100% | 70 to 100% | 70 to 100%
C#CCN(C(=O)COC)c1c(SC(F)(F)F)c(C#N)nn1-c1c(Cl)cc(OC(F)(F)F)cc1Cl [Compound 48] | 70 to 100% | 70 to 100% | 70 to 100%
COCC(=O)Nc1c([N+](=O)[O-])c(Br)nn1-c1c(Cl)cc(C(F)(F)F)cc1Cl [Compound 49] | 70 to 100% | 70 to 100% | –
CC(C)COC(C)C(=O)Nc1c(SC(F)(F)F)c(C#N)nn1-c1c(Cl)cc(C(F)(F)F)cc1Cl (stereo not shown) [Compound 43] | 70 to 100% | 70 to 100% | 70 to 100%
CCCCCCCCCCCCOCC(=O)Nc1c(SC(F)(F)F)c(C#N)nn1-c1c(Cl)cc(C(F)(F)F)cc1Cl [Compound 36] | – | – | 70 to 100%
COCC(=O)Nc1c([S+]([O-])C(F)F)c(C#N)nn1-c1c(Cl)cc(C(F)(F)F)cc1Cl (stereo not shown) [Compound 19] | 70 to 100% | – | 70 to 100%
COC(C)(C)C(=O)Nc1c(SC(F)(Cl)Cl)c(C#N)nn1-c1c(Cl)cc(C(F)(F)F)cc1Cl [Compound 31] | 70 to 100% | 70 to 100% | –
COCCOCCOCC(=O)Nc1c([S+]([O-])C(F)(F)F)c(C#N)nn1-c1c(Cl)cc(C(F)(F)F)cc1Cl (stereo not shown) [Compound 10] | 70 to 100% | – | –
